# According to patent US20260070945A1, “MACROCYCLIC IMMUNOMODULATORS” (Bristol-Myers Squibb Company, priority 2022, published 2026):
# *1 amine or outer side, *2 acyl side, *3 side chain or, on linkers, in order; H or OH if unused. Where a SMILES comes first, the peptide text is derived from it. Bridges are numbered along the chain shown (N, C = ends). [ ]: non-standard residue; d: D form. The star is where a group is joined. ξ: configuration not given here. Phe(3-CF3) = N[C@@H](Cc1cccc(C(F)(F)F)c1)C(=O)O; Phe(4-CF3) = N[C@@H](Cc1ccc(C(F)(F)F)cc1)C(=O)O; Tyr(3,5-F2) = N[C@@H](Cc1cc(F)c(O)c(F)c1)C(=O)O; Phe(4-COOH) = N[C@@H](Cc1ccc(C(=O)O)cc1)C(=O)O; Bip = N[C@@H](Cc1ccc(-c2ccccc2)cc1)C(=O)O; Phe(3-Me) = Cc1cccc(C[C@H](N)C(=O)O)c1; βAsp = O=C(O)[C@H](CC(=O)[*:2])N[*:1]; NH(CH2)12COOH = O=C(O)CCCCCCCCCCCCN*; NMeAEEA = CN(CCOCCOCC(=O)[*:2])[*:1]; Val(3-OH) = CC(C)(O)[C@H](N)C(=O)O; hArg = N=C(N)NCCCC[C@H](N)C(=O)O; 4Pal = N[C@@H](Cc1ccncc1)C(=O)O; NMeE = CN[C@@H](CCC(=O)O)C(=O)O; 2Thi = N[C@@H](Cc1cccs1)C(=O)O; Cha = N[C@@H](CC1CCCCC1)C(=O)O; Ile(3ξ) = CCC(C)[C@H](N)C(=O)O; Thr(3ξ) = CC(O)[C@H](N)C(=O)O; Carboxymethyl = O=C(O)C*; NMeA = CN[C@@H](C)C(=O)O; Orn = NCCC[C@H](N)C(=O)O; Aun = NCCCCCCCCCCC(=O)O; Dab = NCC[C@H](N)C(=O)O; Dap = NC[C@H](N)C(=O)O; AEEA = NCCOCCOCC(=O)O; Sar = CNCC(=O)O
# Target: T1, PD-1/PD-L1 interaction (PE-labeled human PD-L1-Ig binding to Jurkat cell line over-expressing human PD-1) (Homo sapiens, UniProt Q15116)
# T1 construct: expressed in transfected cells; host or cells: Jurkat
# T1 sequence (Q15116 25-288): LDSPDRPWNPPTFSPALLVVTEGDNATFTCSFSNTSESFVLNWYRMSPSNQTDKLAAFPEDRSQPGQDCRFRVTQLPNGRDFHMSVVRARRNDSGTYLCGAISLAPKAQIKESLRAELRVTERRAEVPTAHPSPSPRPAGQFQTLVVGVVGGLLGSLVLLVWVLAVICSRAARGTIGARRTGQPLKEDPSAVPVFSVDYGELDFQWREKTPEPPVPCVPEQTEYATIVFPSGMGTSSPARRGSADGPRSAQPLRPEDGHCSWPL
# Experiment: Jurkat-PD-1 Cell Binding High-Content Screening Assay (CBA)
# Conditions: Jurkat-hPD-1 cells, PE-labeled PD-L1-Ig 20 nM final; read-out: Jurkat HPD1 PDL1 IC50
# Procedure, shortened: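 High-content imaging read-out of PE-PD-L1-Ig binding (20 nM final, 1 h) to Jurkat-hPD-1 cells, after 2 h compound exposure at 37 °C in DMEM with 10% FCS. Nuclei counterstained with Hoechst 33342 after paraformaldehyde fixation.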
row,IC50 [µM],SMILES
1,0.0156,CC(=O)NCCCC[C@@H]1NC(=O)[C@H](CC2CCCCC2)NC(=O)[C@H](CCN)NC(=O)[C@@H](CC(C)C)NC(=O)[C@H](C)N(C)C(=O)[C@H](C(C)C)NC(=O)[C@H](Cc2ccc(-c3ccccc3)cc2)NC(=O)[C@H](C(C)C)NC(=O)[C@H](Cc2cccc(C)c2)NC(=O)[C@H](CC(=O)O)NC(=O)[C@H](Cc2ccc(OCC(=O)O)cc2)NC(=O)[C@H](C(C)O)NC(=O)CSC[C@@H](C(=O)N[C@@H](CCN)C(=O)NCCCCCCCCCCC(=O)O)NC(=O)[C@H](CO)NC1=O (stereo partly drawn) [Example 2300] ({CH2CO}-[Thr(3ξ)]Y(Carboxymethyl)D[Phe(3-Me)]V[Bip]V[NMeA][dL][Dab][Cha]K(Ac)SC[Dab][Aun]-OH; thioether N-14)
2,0.045,Cc1cccc(C[C@@H]2NC(=O)[C@H](CC(=O)O)NC(=O)[C@H](Cc3ccc(OCC(=O)O)cc3)NC(=O)[C@H](CN)NC(=O)CSC[C@@H](C(=O)N(C)CCOCCOCC(=O)NCCCCCCCCCCC(=O)O)NC(=O)[C@H](CCCN)NC(=O)[C@H](C(C)C)NC(=O)[C@H](CC3CCCCC3)NC(=O)[C@H](CCN)NC(=O)[C@@H](CC(C)C)NC(=O)[C@H](C)N(C)C(=O)[C@H](C(C)C)NC(=O)[C@H](Cc3ccc(-c4ccccc4)cc3)NC(=O)[C@H](C(C)C)NC2=O)c1 [Example 2414] ({CH2CO}-[Dap]Y(Carboxymethyl)D[Phe(3-Me)]V[Bip]V[NMeA][dL][Dab][Cha]V[Orn]C[NMeAEEA][Aun]-OH; thioether N-14)
3,0.0296,CC(C)C[C@H]1NC(=O)[C@H](C)N(C)C(=O)[C@H](C(C)C)NC(=O)[C@H](Cc2ccc(-c3ccccc3)cc2)NC(=O)[C@H](C(C)C)NC(=O)[C@H](Cc2c[nH]c3ccccc23)NC(=O)[C@H](CC(=O)O)NC(=O)[C@H](CCCCNC(=N)N)NC(=O)[C@H](Cc2ccc(OCC(=O)O)cc2)NC(=O)CSC[C@@H](C(=O)N[C@@H](CCCCN)C(=O)NCCOCCOCC(=O)NCCCCCCCCCCC(=O)O)NC(=O)[C@H](CO)NC(=O)[C@H](C(C)C)NC(=O)[C@H](CC2CCCCC2)NC(=O)[C@H](CCN)NC1=O [Example 2103] ({CH2CO}-Y(Carboxymethyl)[hArg]DWV[Bip]V[NMeA][dL][Dab][Cha]VSCK[AEEA][Aun]-OH; thioether N-14)
4,0.008,CCC(C)[C@@H]1NC(=O)[C@H](Cc2ccc(-c3ccccc3)cc2)NC(=O)[C@H](C(C)C)NC(=O)[C@H](Cc2c[nH]c3ccccc23)NC(=O)[C@H](CC(=O)O)NC(=O)[C@H](Cc2ccncc2)NC(=O)[C@H](Cc2ccc(OCC(=O)O)cc2)NC(=O)CSC[C@@H](C(=O)N[C@@H](CCCN)C(=O)NCCOCCOCC(=O)NCCCCCCCCCCC(=O)O)NC(=O)[C@H](C(C)O)NC(=O)[C@H](C(C)C)NC(=O)[C@H](CC2CCCCC2)NC(=O)[C@H](CCN)NC(=O)[C@@H](CC(C)C)NC(=O)[C@H](C)N(C)C1=O (stereo partly drawn) [Example 2106] ({CH2CO}-Y(Carboxymethyl)[4Pal]DWV[Bip][Ile(3ξ)][NMeA][dL][Dab][Cha]V[Thr(3ξ)]C[Orn][AEEA][Aun]-OH; thioether N-14)
5,0.0875,Cc1cccc(C[C@@H]2NC(=O)[C@H](CC(=O)O)NC(=O)[C@H](Cc3ccc(C(=O)O)cc3)NC(=O)[C@H](Cc3ccc(OCC(=O)O)cc3)NC(=O)CSC[C@@H](C(=O)NCC(=O)N[C@@H](CC(=O)NCCOCCOCC(=O)N[C@@H](CC(=O)O)C(=O)NCCOCCOCC(=O)NCCCCCCCCCCC(=O)O)C(=O)O)NC(=O)[C@H](CO)NC(=O)[C@H](C(C)C)NC(=O)[C@H](CC(C)C)NC(=O)[C@H](CC(N)=O)NC(=O)[C@@H](CC(C)C)NC(=O)[C@H](C)N(C)C(=O)[C@H](C(C)C)NC(=O)[C@H](Cc3ccc(-c4ccccc4)cc3)NC(=O)[C@H](CC(C)C)NC2=O)c1 [Example 1024] ({CH2CO}-Y(Carboxymethyl)[Phe(4-COOH)]D[Phe(3-Me)]L[Bip]V[NMeA][dL]NLVSCG[βAsp][AEEA]D[AEEA][Aun]-OH; thioether N-14)
6,0.154,Cc1cccc(C[C@@H]2NC(=O)[C@H](CC(=O)O)NC(=O)[C@H](Cc3ccc(OCC(=O)O)cc3)NC(=O)[C@H](C(C)O)NC(=O)CSC[C@@H](C(=O)N(C)CC(=O)NCCCCCCCCCCC(=O)O)NC(=O)[C@H](C(C)O)NC(=O)[C@H](C(C)C)NC(=O)[C@H](CC3CCCCC3)NC(=O)[C@H](CCN)NC(=O)[C@@H](CC(C)C)NC(=O)[C@H](C)N(C)C(=O)[C@H](C(C)C)NC(=O)[C@H](Cc3ccc(-c4ccccc4)cc3)NC(=O)[C@H](Cc3ccc(O)cc3)NC2=O)c1 (stereo partly drawn) [Example 2262] ({CH2CO}-[Thr(3ξ)]Y(Carboxymethyl)D[Phe(3-Me)]Y[Bip]V[NMeA][dL][Dab][Cha]V[Thr(3ξ)]C[Sar][Aun]-OH; thioether N-14)
7,0.0201,"Cc1cccc(C[C@@H]2NC(=O)[C@H](CC(=O)O)NC(=O)[C@H](Cc3ccc(C(=O)O)cc3)NC(=O)[C@H](CCN)NC(=O)CSC[C@@H](C(=O)N[C@@H](CCN)C(=O)NCCCCCCCCCCC(=O)O)NC(=O)[C@H](CO)NC(=O)[C@H](C(C)(C)O)NC(=O)[C@H](CC3CCCCC3)NC(=O)[C@H](CCN)NC(=O)[C@@H](CC(C)C)NC(=O)[C@H](C)N(C)C(=O)[C@H](Cc3ccc(OCC(=O)O)cc3)NC(=O)[C@H](Cc3ccc(-c4ccccc4)cc3)NC(=O)[C@H](Cc3cc(F)c(O)c(F)c3)NC2=O)c1 [Example 1290] ({CH2CO}-[Dab][Phe(4-COOH)]D[Phe(3-Me)][Tyr(3,5-F2)][Bip]Y(Carboxymethyl)[NMeA][dL][Dab][Cha][Val(3-OH)]SC[Dab][Aun]-OH; thioether N-14)"
8,0.13,Cc1cccc(C[C@@H]2NC(=O)[C@H](CC(=O)O)NC(=O)[C@H](Cc3ccc(OCC(=O)O)cc3)NC(=O)[C@H](C(C)O)NC(=O)CSC[C@@H](C(=O)N(C)[C@@H](CCC(=O)O)C(=O)NCCCCCCCCCCC(=O)O)NC(=O)[C@H](CO)NC(=O)[C@H](C(C)C)NC(=O)[C@H](CC3CCCCC3)NC(=O)[C@H](CCN)NC(=O)[C@@H](CC(C)C)NC(=O)[C@H](C)N(C)C(=O)[C@H](C(C)C)NC(=O)[C@H](Cc3ccc(-c4ccccc4)cc3)NC(=O)[C@H](C(C)C)NC2=O)c1 (stereo partly drawn) [Example 2299] ({CH2CO}-[Thr(3ξ)]Y(Carboxymethyl)D[Phe(3-Me)]V[Bip]V[NMeA][dL][Dab][Cha]VSC[NMeE][Aun]-OH; thioether N-14)

# Same assay, conditions: PE-labeled PD-L1-Ig 20 nM final, Jurkat-hPD-1 cells; read-out: Jurkat HPD1 PDL1 IC50
row,IC50 [µM],SMILES
1,0.136,CC(C)C[C@H]1NC(=O)[C@H](C)N(C)C(=O)[C@H](Cc2ccc(C(=O)O)cc2)NC(=O)[C@H](Cc2ccc(-c3ccccc3)cc2)NC(=O)[C@H](Cc2ccc(OCC(=O)O)cc2)NC(=O)[C@H](Cc2cccc(C(F)(F)F)c2)NC(=O)[C@H](CC(=O)O)NC(=O)[C@H](Cc2ccc(OCC(=O)O)cc2)NC(=O)[C@H](Cc2cccs2)NC(=O)CSC[C@@H](C(=O)N[C@@H](CCN)C(=O)NCCCCCCCCCCCCC(=O)O)NC(=O)[C@H](Cc2cnc[nH]2)NC(=O)[C@H](C(C)(C)O)NC(=O)[C@H](CC2CCCCC2)NC(=O)[C@H](CCN)NC1=O [Example 2636] ({CH2CO}-[2Thi]Y(Carboxymethyl)D[Phe(3-CF3)]Y(Carboxymethyl)[Bip][Phe(4-COOH)][NMeA][dL][Dab][Cha][Val(3-OH)]HC[Dab]-{NH(CH2)12COOH}; thioether N-14)
2,0.259,CC(C)C[C@H]1NC(=O)[C@H](C)N(C)C(=O)[C@H](Cc2ccc(OCC(=O)O)cc2)NC(=O)[C@H](Cc2ccc(-c3ccccc3)cc2)NC(=O)[C@H](Cc2ccc(OCC(=O)O)cc2)NC(=O)[C@H](Cc2c[nH]c3ccccc23)NC(=O)[C@H](CC(=O)O)NC(=O)[C@H](Cc2ccc(OCC(=O)O)cc2)NC(=O)[C@H](C(C)O)NC(=O)CSC[C@@H](C(=O)N[C@@H](CCN)C(=O)NCCCCCCCCCCC(=O)O)NC(=O)[C@H](CO)NC(=O)[C@H](Cc2cnc[nH]2)NC(=O)[C@H](CC2CCCCC2)NC(=O)[C@H](CCN)NC1=O (stereo partly drawn) [Example 2428] ({CH2CO}-[Thr(3ξ)]Y(Carboxymethyl)DWY(Carboxymethyl)[Bip]Y(Carboxymethyl)[NMeA][dL][Dab][Cha]HSC[Dab][Aun]-OH; thioether N-14)
3,0.185,CCC(C)[C@@H]1NC(=O)[C@H](Cc2ccc(-c3ccccc3)cc2)NC(=O)[C@H](Cc2ccc(C(F)(F)F)cc2)NC(=O)[C@H](Cc2c[nH]c3ccccc23)NC(=O)[C@H](CC(=O)O)NC(=O)[C@H](Cc2ccc(OCC(=O)O)cc2)NC(=O)[C@H](Cc2cnc[nH]2)NC(=O)CSC[C@@H](C(=O)N[C@@H](CCN)C(=O)NCCOCCOCC(=O)NCCCCCCCCCCC(=O)O)NC(=O)[C@H](CCC(=O)O)NC(=O)[C@H](C(C)(C)O)NC(=O)[C@H](CC2CCCCC2)NC(=O)[C@H](CCN)NC(=O)[C@@H](CC(C)C)NC(=O)[C@H](C)N(C)C1=O (stereo partly drawn) [Example 2590] ({CH2CO}-HY(Carboxymethyl)DW[Phe(4-CF3)][Bip][Ile(3ξ)][NMeA][dL][Dab][Cha][Val(3-OH)]EC[Dab][AEEA][Aun]-OH; thioether N-14)
4,0.0325,Cc1cccc(C[C@@H]2NC(=O)[C@H](CC(=O)O)NC(=O)[C@H](Cc3ccc(OCC(=O)O)cc3)NC(=O)[C@H](Cc3ccncc3)NC(=O)CSC[C@@H](C(=O)N[C@@H](CCCN)C(=O)NCCOCCOCC(=O)NCCCCCCCCCCC(=O)O)NC(=O)[C@H](CCC(=O)O)NC(=O)[C@H](C(C)(C)O)NC(=O)[C@H](CC3CCCCC3)NC(=O)[C@H](CCN)NC(=O)[C@@H](CC(C)C)NC(=O)[C@H](C)N(C)C(=O)[C@H](Cc3ccc(C(=O)O)cc3)NC(=O)[C@H](Cc3ccc(-c4ccccc4)cc3)NC(=O)[C@H](Cc3ccc(C(=O)O)cc3)NC2=O)c1 [Example 2497] ({CH2CO}-[4Pal]Y(Carboxymethyl)D[Phe(3-Me)][Phe(4-COOH)][Bip][Phe(4-COOH)][NMeA][dL][Dab][Cha][Val(3-OH)]EC[Orn][AEEA][Aun]-OH; thioether N-14)
